Assay [1] concerns male gypsy moth antennae response to pheromone (+)-1 with plant odors. In words: Effect on mixed pheromone/plant odorant stimulus, EAG (Example 8, second objective). On the set-up: species or system Lymantria dispar. As to the method: A second objective for this experiment was to determine whether the oak volatiles, methyl eugenol and 1-hexanol, can enhance the antennal response to (+)-1 and whether the mixed pheromone/plant odorant stimulus can be inhibited by compound 3c{2,3} or DEET. The puff order was: i) air, ii) pure (+)-1 (100 ng), iii) (+)-1 (100 ng) and plant odorant (1 μg for methyl eugenol and 100 μg for 1-hexanol), iv) (+)-1 and plant odorant as in iii+antagonist (100 μg), v) same as in iii. Depolarizations were corrected for the air response as in Eq. 1 and the short-term effects were calculated for puff iii relative to puff ii, and for puff iv relative to puff ii. Long-term effects were calculated for puff v relative to puff iii (for LTI of the mixed pheromone/plant odorant plume) and for puff v relative to puff ii (to determine whether long-term effects of the plant odorant and of the antagonist cancel).

Assay [2] deals with third instar gypsy moth larvae. In words: Feeding deterrence, oak leaf disc choice test (Example 13). It is filed as in vivo, Lymantria dispar. Conditions: third instar larvae, oak leaf discs, choice between treated and control disc for 17.5 hours; ((C−T)/(C+T))*100. As to the method:
Gypsy moth larvae were tested at the Canadian Forest Service, for feeding deterrence. A selected set of compounds, based on the results with the electroantennogram testing and also based on feeding deterrence assay results with the cabbage looper, T. ni. The experiment was done with third instar larvae and oak leaf discs. Larvae were left to choose between a treated and a control disc for 17.5 hours. Measurements of leaf areas were used to calculate the amount of leaf consumed from control (C) and treated (T) leaves. Feeding deterrence was calculated using the following formula: ((C−T)/(C+T))*100, and expressed in percent, where C=area of control leaf consumed and T=area of treated leaf consumed.

For assay [3], the system named is male gypsy moth antenna response to odorants other than (+)-1. In words: Long-term inhibition of responses to other pheromone and host plant odorants, EAG (Example 8, first objective). On the set-up: species or system Lymantria dispar. Conditions: antagonist 100 μg. How it is done: To determine whether the long-term inhibitory effects of 3c{2,3} and DEET are specific to (+)-1 or also apply to other odorants, compound 3c{2,3} and DEET were tested further with other odorants: (−)-1, racemic 1, dispar alkene, methyl eugenol and 1-hexanol.
These included (−)-1, racemic 1, dispar alkene (the alkene corresponding to the carbon framework of 1), methyl eugenol (a characteristic oak wood odorant) and 1-hexanol (a green leaf volatile, shown previously to be detected by gypsy moth antennae). For the pure odorant puffs, (−)-1 and racemic 1 were administered at 100 ng/cartridge, the alkene, methyl eugenol was administered at 1 μg/cartridge and 1-hexanol was administered at 100 μg/cartridge. The antagonists were both administered at 100 μg/cartridge, mixed with the appropriate dose of the odorant. The puff order was: i) air, ii) pure odorant, iii) odorant+antagonist, iv) pure odorant. All puffs were corrected for the air response as in Eq. 1. STI values were obtained from the depolarization […]. LTI values were obtained by comparing the depolarization of puff iv relative to that of puff ii.

The test system of a further assay is gypsy moths. In words: Field test of trap catches, Northern Japan 2009 (Example 12). It is filed as in vivo, Lymantria dispar. Particulars: (+)-dis 40 μg/lure & compound 40 mg/lure, vs (+)-dis alone. How it is done:
Ten traps were used per treatment. The solvent used to deliver the compounds onto the lures was doubly distilled hexane. The hexane was evaporated prior to packing and shipping the lures. The field test was conducted in 10 replicates in Northern Japan. The test was conducted Aug. 16-18, 2009, in an area where gypsy moths are known to live. […] Traps were arranged randomized, placed on platforms. The experiment was conducted blind. The lures contained 40 μg disparlure/lure, a low dose for a field trial (typically 100 μg-1 mg are used). For each treatment, 10 traps were deployed.

The test system of assay [4] is male gypsy moth antenna response to pheromone (+)-1. The assay is described as follows: EAG short-term (STI) and long-term (LTI) inhibition of pheromone signaling (Example 5). On the set-up: species or system Lymantria dispar. Particulars: for Activity (%): short-term inhibition (STI): negative = enhancement. Summed up:
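Excised male gypsy moth antenna in saline pH 6.8 under purified air (300 mL/min); 0.3 s puffs: air, (+)-1 100 ng, (+)-1 plus compound 1, 10, 100 μg per cartridge, then (+)-1 alone. STI: mixed-puff air-corrected depolarization loss versus first pheromone puff; LTI: final pheromone-puff loss.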

In another assay the test system is L. dispar PBP 1. In words: Pheromone-binding protein (PBP) ligand binding assay, PBP1. On the set-up: species or system Lymantria dispar. Conditions: tested as single compound; means ± S.E., 4 replicates. As to the method: (§1) A. The protein and ligand are incubated in buffer overnight. B. For half of the incubation mixture, the free ligand (L) is separated from the protein-bound ligand (P.L) by size-exclusion chromatography on P2 Gel (BioRad, exclusion limit 2000 Da). The protein elutes from the small column bed, with its ligand bound (see Examples and […] et al. 2000; Staddon and Everton 1980), while the free ligand is retained on the column ([…] et al. 2000). C. […] The extract from the filtrate (B) contains the protein-bound ligand and the extract from the incubation mixture (A) contains all the ligand (bound and free) present in the aqueous phase. The extracts are analyzed by GC-MS, to obtain values for total ligand in solution (L+P.L) and for protein-bound ligand (P.L). These can then be used to calculate % bound (Table 3). These assays were performed as described in FIG. 3 and as follows: L. dispar PBP 1 or PBP 2 was incubated with the test compound or mini-library. The PBP and the ligand(s) (L) were left to equilibrate (eq 2) overnight. The non-bound ligand was then separated from the protein-bound material (PBP.L) by size-exclusion chromatography. By determining the total ligand in solution at equilibrium (eq. 3) and the protein-bound ligand, it is possible to estimate the percentage of ligand bound to the protein at equilibrium (eq. 4). […] This binding assay has been validated extensively in previous studies ([…] et al. 2000). The components of each mini-library separated cleanly by GC, so it was possible to monitor binding of individual components. PBP+L⇄PBP·L (eq. 2) [L]tot=[L]+[PBP·L] (eq. 3) % bound=100×[PBP·L]/[L]tot (eq. 4) Results: The members of each mini-library separated cleanly by GC, therefore it was possible to monitor binding of individual members to PBP1 or PBP2, the two known PBPs in the gypsy moth, by extraction from the aqueous incubation mixture, followed by GC analysis of the extract (FIG. 3).

For the next assay, the system named is L. dispar PBP 2. In words: Pheromone-binding protein (PBP) ligand binding assay, PBP2. On the set-up: species or system Lymantria dispar. Conditions: tested as single compound; means ± S.E., 4 replicates. As to the method:
as §1

Assay [5] concerns male gypsy moth antenna response to pheromone (+)-1. The assay is described as follows: Decay of the long-term inhibitory effect and dose responses, EAG (Example 6). Conditions: 100 ng; maximal value, on average. On the set-up: species or system Lymantria dispar. How it is done:
LTI dependence on the delay time of the pure (+)-1 puffs (v-vii, Example 6) after the mixed (+)-1/inhibitor puff. The amount of (+)-1 was varied from 10 ng to 1 μg and the amount of inhibitor was constant at 100 μg. FIG. 7B. Dose response of LTI with respect to variable (+)-1 responses and time responses for the strongest long-term inhibition of EAG responses towards (+)-1. FIG. 7C. Dose response of pure pheromone (+)-1. FIG. 7D.
This recovery usually took 5-7 s. The short-term inhibition STI(compound, dose) was calculated for each mixed plume. The long-term inhibition LTI(dose, time) was calculated for each dose and for each of the three puffs following the mixed pheromone-inhibitor plume.

Where [6] appears, read: plant synergist 1-hexanol 100 μg.
The mark [7] stands for this setting: plant synergist methyl eugenol 1 μg.
Where [8] appears, read: odorant racemic disparlure 100 ng.

Entries after “also recorded” stand apart in the source; their conditions may differ.

Regarding `CCN(CC)C(=O)c1cccc(C)c1` [DEET, reference compound], the “short-term effect with plant synergist + antagonist” value in assay [1] ((+)-1 100 ng + 1-hexanol 100 μg + antagonist 100 μg) is recorded as −339 ± 206 (5); in assay [1] ((+)-1 100 ng + methyl eugenol 1 μg + antagonist 100 μg), −210 ± 120 (5). In addition, the “long-term effect on (+)-1 response” value in assay [1] (setting [6]) is −53 ± 48 (5); in assay [1] (setting [7]), 27 ± 29 (5). The “long-term effect on the mixed (+)-1/plant odor plumes” value is on record as −24 ± 19 (5) in assay [1] (setting [6]) and 30 ± 27 (5) in assay [1] (setting [7]). The “Feeding Deterrence (%)” value in assay [2] came to 47.76%. The “long-term activity (%)” value in assay [3] (odorant 1-hexanol 100 μg) is 7 ± 18%; in assay [3] (odorant (−)-disparlure 100 ng), −10 ± 29%; in assay [3] (odorant dispar alkene 1 μg) it was 52 ± 22%; in assay [3] (odorant methyl eugenol 1 μg), 8 ± 8%; in assay [3] (setting [8]), −126 ± 133%. The “short-term activity (%)” value in assay [3] (odorant 1-hexanol 100 μg) is 6 ± 30%; in assay [3] (odorant (−)-disparlure 100 ng, negative = enhancement) it was −322 ± 66%; in assay [3] (setting [8]), −468 ± 231%. The “trap catches in the field” value with gypsy moths is “enhanced the trap catches significantly”. For the same molecule, in assay [4], the “long-term inhibition (LTI) activity (in words)” value is “strongest long-term inhibitors; also recorded: strong LTI activity”. For the same molecule, the “Activity (%): short-term inhibition (STI)” value in assay [4] (mixed plume (+)-1 100 ng + compound 1 μg, mean ± S.E.) is −165 ± 51 (5) %; in assay [4] (mixed plume (+)-1 100 ng + compound 10 μg, mean ± S.E.), −214 ± 48 (5) %; in assay [4] (mixed plume (+)-1 100 ng + compound 100 μg (puff v), mean ± S.E.), −203±42%. Also, in assay [4] (mixed puff with highest dose (puff v)), the “inhibition of the recovery phase (RI, R^1 activity)” value amounted to 9±9%. The “Activity (%): long-term inhibition (LTI)” value in assay [4] (pure (+)-1 100 ng plume following mixed plume with 100 μg compound, mean ± S.E.) is listed as 78 ± 6 (5) %.

Consider `CCCCCCCCCC[C@@H]1O[C@@H]1CCCCC(C)C` (relative stereo) [(+)-disparlure, cis-(7R,8S)-7,8-epoxy-2-methyloctadecane, reference compound], for which, in the assay on L. dispar PBP 1, the “PBP1 (% bound)” value is reported as 54 ± 16%. The “PBP2 (% bound)” value with L. dispar PBP 2 came out at 71 ± 23%. Further, the “depolarization with pure pheromone” value in assay [5] is recorded as 20 mV.

For the origin of these results see patent US9497963B2, “Methods and compositions for control of gypsy moth, Lymantria dispar” (Simon Fraser University, priority 2008, dated 2016).
